Measurements published in PubChem BioAssay (NCI).
“And” between values parts separate entries of the source, which are not always exact repeats. Identical values can stand only once.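 Grown in 96-well plates, cells were treated for 48 hours with each compound at five concentrations. Insufficient inhibition: endpoint recorded as highest concentration tested. GI50 marks 50% less growth. TGI denotes the concentration required for complete inhibition of growth.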

How the values were obtained:
Assay in all cases: growth of human tumour cells (NCI), 48 h
HOP-92 NSCLC = test system: HOP-92 NSCLC
OVCAR-3 ovarian = test system: OVCAR-3 ovarian
UACC-257 melanoma = test system: UACC-257 melanoma
SK-OV-3 ovarian = test system: SK-OV-3 ovarian
NCI-H23 lung = test system: NCI-H23 lung
KM12 colon = test system: KM12 colon
HT29 colon = test system: HT29 colon
NCI-H460 lung = test system: NCI-H460 lung
OVCAR-4 ovarian = test system: OVCAR-4 ovarian
OVCAR-5 ovarian = test system: OVCAR-5 ovarian

Compound | GI50 (HOP-92 NSCLC) [µM] | TGI (HOP-92 NSCLC) [µM] | GI50 (OVCAR-3 ovarian) [µM] | TGI (OVCAR-3 ovarian) [µM] | GI50 (UACC-257 melanoma) [µM] | TGI (UACC-257 melanoma) [µM] | GI50 (SK-OV-3 ovarian) [µM] | TGI (SK-OV-3 ovarian) [µM] | GI50 (NCI-H23 lung) | TGI (NCI-H23 lung) [µM] | GI50 (KM12 colon) [µM] | TGI (KM12 colon) [µM] | GI50 (HT29 colon) | TGI (HT29 colon) [µM] | GI50 (NCI-H460 lung) | TGI (NCI-H460 lung) [µM] | GI50 (OVCAR-4 ovarian) [µM] | TGI (OVCAR-4 ovarian) [µM] | GI50 (OVCAR-5 ovarian) [µM] | TGI (OVCAR-5 ovarian) [µM]
CC(=O)N1CCN(CCOc2ccc(C3CCN(C4=Nn5c(nnc5C(F)(F)F)CC4)CC3)cc2)CC1 | 7.64 | > 100 | 20.8 | > 100 | 26 | > 100 | 21.1 | > 100 | 11.4 µM | > 100 | 31.5 | > 100 | 9.08 µM | > 100 | 30.9 µM | > 100 | 8.55 | > 100 | 89.4 | > 100
Cc1cc(O)cc2c1c(=O)c1ccccc1n2C |  | 93.6 |  | > 100 |  | > 100 |  | > 100 |  | > 100 |  | > 100 |  | > 100 |  | > 100 |  | > 100 |  | > 100
N#Cc1c2c(c(-c3cccs3)n(C3OC(CO)C(O)C(O)C3O)c1=S)CCc1ccccc1-2 (centres undefined) | 3.35 | > 88.8 |  | > 100 |  | > 100 |  | > 100 | 13.5 µM and > 39.3 µM | > 100 |  | > 100 | 6.27 µM and > 20.9 µM | > 100 | 37.8 µM and > 100 µM | > 100 |  | > 100 |  | > 100
COc1cc(C2c3cc4c(cc3[C@@H](Nc3ccc(N)cc3)C3COC(=O)[C@H]23)OCO4)cc(OC)c1O (some centres undefined) | 0.495 |  |  | 20 |  | 28 | 0.805 | 17.3 | 0.415 µM | 4.85 |  | 14.3 |  | 54 | 0.139 µM | 2.36 |  | 41.6 | 0.896 | 31.6
C#CCN(Cc1nc2cc(C(F)(F)F)ccc2nc1-c1ccccc1)c1ccc(F)c(F)c1 | 59.5 | > 100 | 13.9 | 61.8 | 40.5 | 64.9 | > 100 | > 100 | 94.3 µM | > 100 |  |  | 41.1 µM | > 100 | 26.5 µM | > 100 | > 100 | > 100 | > 100 | > 100
CCOC(=O)/C(C#N)=C/Nc1ccc(-c2nc3ccccc3[nH]2)cc1 | 42.1 | > 100 | 20.4 | 51.6 | 62.1 | > 100 | 25.6 | 99.3 |  |  | 16.1 | 44.1 |  |  | 24.8 µM | > 100 | 31.4 | > 100 | 50.8 | > 100
CC(=O)O[C@H]1C=CC23OC(=O)[C@]1(C)[C@H]2[C@H](C(=O)O)C12CC(=O)[C@@](CO)(CC[C@H]13)C2 |  | > 100 |  | > 100 |  | > 100 |  | > 100 |  | > 100 |  | > 100 |  | > 100 |  | > 100 |  | > 100 |  | > 100
NS(=O)(=O)c1ccc(NC(=O)Nc2ccccc2F)cc1 |  | > 100 |  | > 100 |  | > 100 |  | > 100 |  | > 100 |  | > 100 |  | > 100 |  | > 100 |  | > 100 |  | > 100
Nc1c(C(=O)Nc2cccc(Br)c2)sc2nc3c(cc12)C(O)CCC3 (centres undefined) | 0.383 | 11.4 | 0.32 | 3.08 |  |  | 0.57 | 40.8 | 0.761 µM | > 100 | 0.399 | > 51 | 0.319 µM | 11 | 0.375 µM | 22 | 3.14 | 66 | 3.37 | 60
Cc1sc2ncn(Cc3ccc(Cl)c(Cl)c3)c(=O)c2c1C | 18.4 | 73.7 | 8.04 | 38.3 | 78.8 | > 100 | 46.8 | > 100 | 32.5 µM | > 100 | 2.44 | 11.7 | 77.7 µM | > 100 | 51.5 µM | > 100 | 28.2 | 68.9 | 21.6 | 79.7
c1ccc2nc(OCCN3CC3)ccc2c1 | 1.9 | 9.44 | 6.29 | 22.1 | 16.5 | 32.8 | 16.8 | 33.6 | 12.9 µM | 35.8 | 4.37 | 16.5 |  |  | 4.21 µM | 20.9 | 10.3 | 25.3 | 17.1 | 31.5
Nc1ccc(C(=O)N/C(=C\c2cccc([N+](=O)[O-])c2)c2nc3c4c(ccc3[nH]2)C(=O)c2ccccc2C4=O)cc1 |  | 93.4 |  | > 100 |  | > 100 |  | > 100 |  | > 100 |  |  |  | > 100 |  | > 100 |  | 43.4 |  | > 100
Cc1cc(S(=O)(=O)Nc2nc3cc(Cl)ccc3o2)c(SCc2ccccc2)cc1Cl | 18.7 | 39.1 | 22 | 45.6 | 18.4 | 38.4 |  |  | 26.5 µM | 54.2 | 18.9 | 45.5 | 39.9 µM | > 100 | 21.7 µM | 58.5 | 25.6 | 74.7 | 22.7 | 43
CC1=C(C(=O)Nc2ccccc2)C(c2ccc(C(C)C)cc2)C(C(=O)Nc2ccccc2)=C(C)N1 |  | 32.5 |  | 56.3 |  |  |  | 82.9 |  | > 58.5 |  | 77.8 |  | 29.9 |  | 55.4 |  | > 100 |  | 38.5
CCCn1c(N)c(C(=O)CNc2ccc(I)cc2)c(=O)[nH]c1=O | 7.86 | > 24.3 | > 48.4 | > 100 |  | > 100 | > 100 | > 100 | > 61.4 µM | > 100 |  |  | 1.23 µM | > 100 | 0.393 µM | > 100 | > 100 | > 100 | > 100 | > 100
C1C[OH+]CC[OH+]CC[OH+]CC[OH+]CC[OH+]CC[OH+]1.[Cl-].[Nb+5] | > 100 | > 100 | > 100 | > 100 | > 100 | > 100 | > 100 | > 100 | > 100 µM | > 100 | > 100 | > 100 | > 100 µM | > 100 | > 100 µM | > 100 | > 100 | > 100 |  | 
CCCCOc1ccc(/C=N/Nc2cc(C)nc3ccc(Cl)cc23)cc1 | 1.43 | 2.99 | 2.03 | 3.78 | 1.61 | 3.11 | 1.8 | 3.27 | 1.77 µM | 3.42 | 1.93 | 3.87 | 1.24 µM | 2.61 |  |  | 1.56 | 3 | 1.82 | 3.24
CN1CCN(CCOc2ccc(-c3cnc4c(-c5ccc(F)cc5)cnn4c3)cc2)CC1 | 1.43 | 3.3 | 1.68 | 3.35 | 2.11 | 4.42 |  |  | 1.73 µM | 3.25 | 1.06 | 2.36 | 1.65 µM | 4.28 | 1.54 µM | 3.06 | 1.43 | 3.61 | 1.6 | 3.03
Cn1ncc(-c2ccc3c(=O)[nH]nc(CN)c3c2)c1-c1c(F)cc2ccccc2c1C#N | 4.06 | 18.1 | 6.53 | 19.5 | 7.28 | 20.8 | 13.6 | 26.8 |  |  | 5 | 17.4 | 3.34 µM | 14.5 | 3.67 µM | 14.6 | 7.67 | 25.2 | 11.3 | 29.4
CCc1nc(-n2c(-c3ccccc3)nc3ccccc3c2=O)nc(N)c1-c1ccc(Cl)cc1 | 13.4 | > 100 | 0.554 | 30.7 | 40.3 | > 100 |  |  | 2.9 µM | 39.7 | 26.6 | > 100 | 6.62 µM | > 100 | 8 µM | > 100 | > 100 | > 100 | 2.86 | > 100
C1CC[N-]CC1.CC(=N\O)/C(C)=N/O.CC(=N\O)/C(C)=N/O.[CH2-]CCN1CCOCC1.[Co+2] | > 100 | > 100 | > 100 | > 100 | 98.1 | > 100 | > 100 | > 100 |  |  | > 100 | > 100 | > 100 µM | > 100 | > 100 µM | > 100 | > 100 | > 100 | > 100 | > 100
